Measured values published in patent publication US12162850B2, “Formulations” (Betagenon AB, priority 2019, dated 2024).

Columns and labels:
[1] = Single dose oral pharmacokinetic studies in rabbits; assay type: in vivo, male New Zealand White rabbits; details: for Plasma concentration, mean: 90 mg/kg b.w. oral; for AUCextrap / AUC(0-inf) / AUC(0-t) / Cmax / MRT last / Tmax / half-life: 90 mg/kg b.w. oral single dose; for AUC(0-inf) / AUC(0-t) / Cmax / MRT last / Tmax / half-life: male, New Zealand White, plasma, po, 90 mg/kg
Procedure: The studies detailed below (and referred to as Examples 2 to 8) were conducted to provide comparative single dose oral pharmacokinetics data for Compound 1, as well as sodium and potassium salts of that compound, using non-coated and enteric-coated capsules in male New Zealand White rabbits.
Compound 1 was made using the process described in WO 2011/004162 and milled as described for Example 1c. The non-coated or enteric coated gelatin capsules were individually filled with 180 mg of dry-milled Compound 1 together with accompanying excipients as indicated. Both capsule types were filled with Compound 1 together with 1.8 mg of sodium docusate, 0.18 mg of PVP K30 and 9 mg of mannitol.
Similarly, Compound 2, non-coated or enteric coated gelatin capsules were individually filled with 180 mg of dry-milled Compound 2 (as obtained in Example 1f) together with 1.8 mg of sodium docusate, 0.18 mg of PVP K30 and 9 mg of mannitol.
For Compound 3, non-coated or enteric coated gelatin capsules were individually filled with 90 mg of dry-milled Compound 3 (as obtained in Example 1i) together with 0.90 mg of sodium docusate, 0.09 mg of PVP K30 and 4.50 mg of mannitol.
40 mL of the 2% w/v methyl cellulose solution was added to a 250 mL conical flask together with 10 g of 2 mm glass beads, and vigorously stirred. Compound 1 (720 mg) was slowly added to the solution and the mixture was with continuously stirred for 1 h. The homogenate was transferred to separate flask and its pH recorded. The suspension formulation was prepared before administration to the animals.
Adult healthy male New Zealand white rabbits aged approximately 2 to 3 months old were used for experimentation after 7 days of acclimatization.
To dose the filled capsules, a soft plastic dosing tube was used. The filled capsule was inserted into the dosing tube so that the short end of the capsule protrudes slightly from the tip of the tube. The tip of the capsule was dipped in mineral oil to aid swallowing.
To dose the suspension, an infant feeding tube was used. The feeding tube was inserted through the mouth of the rabbit to the oesophagus and the stomach, and ascertained that it has not been placed in the trachea before dosing to the animals. The suspension of the Compound 1 was administered through the feeding tube. After the administration of the suspension, drinking water of approximately 2.0-2.5 mL was administered to flush out the contents in the feeding tube.
The animals were restrained in a rabbit restrainer and blood samples (400-500 μL/time point) were collected via the central ear artery at 0.16, 0.25, 0.50, 1.0, 2.0, 4.0, 6.0, 8.0, 24.0, 48.0 and 72 hours post-dosing. Collected blood specimens were centrifuged at 4000 or 6000 rpm, 4° C. for 10 minutes and plasma samples were separated and stored at −80° C. until analysis.
Concentrations of the analyte of Compound 1 in New Zealand white rabbits was determined using an API 3200 Q-trap LC-MS/MS system.
Chromatographic separation was achieved on Zorbax C18, 50×4.6 mm, 5 μm column with methanol-0.1% formic acid as mobile phase with gradient elution. The flow rate was set at 1.0 mL min^−1. Detection was accomplished by a triple-quadrupole tandem mass spectrometer in multiple-reaction monitoring (MRM) scanning via electrospray ionization source, applied in the positive mode. The optimised mass transition ion-pairs for quantitation were m/z 379.999→125.000 for the compound 1 and m/z 376.165→165.00 for the ISD (Haloperidol). Calibration plots were linear over the range of 11.062 to 20594.820 ng/mL.
The data of plasma concentration to respective time points for the analyte Compound 1 were used for the pharmacokinetic analysis. Pharmacokinetic analysis was performed using non-compartmental analysis (NCA) module of Phoenix WinNonlin 6.3 software to determine the following pharmacokinetic parameters: • Cmax • Tmax • AUC0-t • AUC0-∞ • T1/2 • MRT […]

[2] = Particle size analysis of dry-milled products (laser diffraction, Shimadzu SALD-2300); assay type: physicochemical
Procedure: Milling was performed for Examples 1a to 1c using an air jet mill (Equipment code: CP-AJM-01; Promas engineers) with the following parameters: Micronisation was repeated in all examples by performing the air jet milling for a second time using the same parameters. This allowed the particle size D90 to be reduced to less than 10 μm. [table] Four drops of Tween 20 were added to 25 mL of water and the mixture was sonicated for 3 minutes to form the dispersant solution. 0.05 g of milled material was transferred into a 250 mL glass beaker. 25 mL of the dispersant solution (Tween 20/water mixture) was added to the beaker with continuous swirling for 2 to 3 minutes. The suspension was transferred into the measuring unit and the particle size distribution measurements were conducted in triplicate.

[3] = rabbit, enteric coated capsule, rabbit plasma (Examples 5, 6, 7)
[4] = rabbit, non-coated capsule, rabbit plasma (Examples 2, 3, 4)
[5] = after 1st milling (air jet mill)
[6] = after 2nd milling (air jet mill)

SMILES: O=C(Nc1nc(=O)n(Cc2ccc(Cl)cc2)s1)c1ccc(Cl)cc1.[K] [Compound 3, 4-chloro-N-[2-[(4-chlorophenyl)methyl]-3-oxo-1,2,4-thiadiazol-5-yl]benzamide potassium salt]
- Plasma concentration, mean ([1]; 0.00 h, enteric coated capsule, rabbit): 0.000 ng/mL
- Plasma concentration, mean ([1]; 0.00 h, non-coated capsule, rabbit): 0.000 ng/mL
- Plasma concentration, mean ([1]; 0.16 h, enteric coated capsule, rabbit): 0.000 ng/mL
- Plasma concentration, mean ([1]; 0.16 h, non-coated capsule, rabbit): 169.000 ng/mL
- Plasma concentration, mean ([1]; 0.25 h, enteric coated capsule, rabbit): 0.000 ng/mL
- Plasma concentration, mean ([1]; 0.25 h, non-coated capsule, rabbit): 255.336 ng/mL
- Plasma concentration, mean ([1]; 0.50 h, enteric coated capsule, rabbit): 0.000 ng/mL
- Plasma concentration, mean ([1]; 0.50 h, non-coated capsule, rabbit): 457.796 ng/mL
- Plasma concentration, mean ([1]; 1.00 h, enteric coated capsule, rabbit): 4.721 ng/mL
- Plasma concentration, mean ([1]; 1.00 h, non-coated capsule, rabbit): 2349.624 ng/mL
- Plasma concentration, mean ([1]; 2.00 h, enteric coated capsule, rabbit): 93.881 ng/mL
- Plasma concentration, mean ([1]; 2.00 h, non-coated capsule, rabbit): 4456.537 ng/mL
- Plasma concentration, mean ([1]; 4.00 h, enteric coated capsule, rabbit): 2558.779 ng/mL
- Plasma concentration, mean ([1]; 4.00 h, non-coated capsule, rabbit): 16997.495 ng/mL
- Plasma concentration, mean ([1]; 6.00 h, enteric coated capsule, rabbit): 7906.592 ng/mL
- Plasma concentration, mean ([1]; 6.00 h, non-coated capsule, rabbit): 21418.736 ng/mL
- Plasma concentration, mean ([1]; 8.00 h, enteric coated capsule, rabbit): 16147.149 ng/mL
- Plasma concentration, mean ([1]; 8.00 h, non-coated capsule, rabbit): 39754.464 ng/mL
- Plasma concentration, mean ([1]; 24.00 h, enteric coated capsule, rabbit): 66084.614 ng/mL
- Plasma concentration, mean ([1]; 24.00 h, non-coated capsule, rabbit): 75168.570 ng/mL
- Plasma concentration, mean ([1]; 48.00 h, enteric coated capsule, rabbit): 79465.599 ng/mL
- Plasma concentration, mean ([1]; 48.00 h, non-coated capsule, rabbit): 77379.051 ng/mL
- Plasma concentration, mean ([1]; 72.00 h, enteric coated capsule, rabbit): 49785.289 ng/mL
- Plasma concentration, mean ([1]; 72.00 h, non-coated capsule, rabbit): 60164.693 ng/mL
- improvement in systemic exposure compared with the milled free base active ingredient ([1]; dry milled, capsules, 90 mg/kg oral, rabbit): more modest improvement
- AUCextrap ([1]; enteric coated capsule, rabbit plasma (Examples 5, 6, 7)): 69.48 ± 19.80%
- AUC(0-inf) [1, 3]: 18600 ± 13800 µg·h/mL
- AUC(0-t) [1, 3]: 3990 ± 43.3 µg·h/mL
- Cmax [1, 3]: 79500 ± 5430 ng/mL
- MRT last [1, 3]: 42 ± 0.696 h
- Tmax [1, 3]: 48 h
- half-life [1, 3]: 189 ± 158 h
- AUC(0-inf) [1, 4]: 9370 ± 3380 µg·h/mL
- AUC(0-t) [1, 4]: 4530 ± 589 µg·h/mL
- Cmax [1, 4]: 81900 ± 10400 ng/mL
- MRT last [1, 4]: 39.6 ± 3.88 h
- Tmax [1, 4]: 40 ± 13.9 h
- half-life [1, 4]: 71.6 ± 22.6 h
- AUCextrap ([1]; non-coated capsule, rabbit plasma (Examples 2, 3, 4)): 52.23 ± 10.63%
- Particle size distribution D10 [2, 5]: 0.382 μm
- Particle size distribution D50 [2, 5]: 3.64 μm
- Particle size distribution D90 [2, 5]: 26.2 μm
- Particle size distribution D100 [2, 5]: 584 μm
- Particle size distribution D10 [2, 6]: 0.289 μm
- Particle size distribution D50 [2, 6]: 1.57 μm
- Particle size distribution D90 [2, 6]: 11.7 μm
- Particle size distribution D100 [2, 6]: 35.3 μm
- Particle size distribution D10 ([2]; before milling): 0.876 μm
- Particle size distribution D50 ([2]; before milling): 13.4 μm
- Particle size distribution D90 ([2]; before milling): 205 μm
- Particle size distribution D100 ([2]; before milling): 665 μm
